Data set [1] deals with C. difficile clinical isolates. Briefly: MIC determination by microbroth dilution per CLSI guideline (Example 1). To be noted: Clostridioides difficile. Type of data set: cell-based, Clostridium difficile. Background: Dilution methods test growth across graded concentrations, often in twofold steps.
A further data set relates to mice. The following applies: p.o.; cited from earlier work.
Another data set deals with cats. To be noted: p.o.; cited from earlier work.
For data set [2] the following is noted: cited from earlier work.
For data set [3] the following is noted: via the urinary tract or by enzymatic metabolism in the liver; cited from earlier work.
Data set [4] relates to C. difficile clinical isolates. The following applies: C. difficile strain ATCC 700057, reference control; cited from earlier work.
The next data set relates to C. difficile. The following applies: published data (footnote a); cited from earlier work.

Structures are written as SMILES. Values after ≈ are worked out from the molar mass of the structure shown. Like-named read-outs stand apart in the source and are kept apart here. Some results are limits rather than exact numbers.

A word on the MIC: it is the lowest concentration that inhibits growth of the organism. By MIC90 is commonly meant an inhibitory concentration at the 90% level, which refers to growth in some studies and to a panel of isolates in others. One may read the LD50 as the dose at which mortality reaches 50%. Consider `O=C(Nc1ccc([N+](=O)[O-])cc1Cl)c1cc(Cl)ccc1O` [Niclosamide, 2′,5-dichloro-4′-nitrosalicylanilide], for which the minimum inhibitory concentration (MIC) in data set [1] (isolate 7-5085357, read-out: MIC of clinical isolates of C. difficile) came out at 0.125 µg/mL; in data set [1] (isolate 7-5779928, read-out: MIC of clinical isolates of C. difficile) it was 0.25 µg/mL; in data set [1] (isolate 7-6008526, read-out: MIC of clinical isolates of C. difficile), 0.25 µg/mL; in data set [1] (isolate 7-6011209, read-out: MIC of clinical isolates of C. difficile), 0.06 µg/mL; in data set [1] (isolate 7-6778909, read-out: MIC of clinical isolates of C. difficile), 0.25 µg/mL; in data set [1] (isolate 7-6854508, read-out: MIC of clinical isolates of C. difficile) it was 0.125 µg/mL. Also, the minimal inhibitory concentration (MIC) in data set [1] (isolate 7-6870430, read-out: MIC of clinical isolates of C. difficile) came to 0.25 µg/mL; in data set [1] (isolate 7-7104022, read-out: MIC of clinical isolates of C. difficile), 0.125 µg/mL; in data set [1] (isolate 7-7116411, read-out: MIC of clinical isolates of C. difficile), 0.125 µg/mL; in data set [1] (isolate 7-7124449, read-out: MIC of clinical isolates of C. difficile), 0.125 µg/mL; in data set [1] (isolate 7-7149204, read-out: MIC of clinical isolates of C. difficile) it was 0.125 µg/mL; in data set [1] (isolate 7-7150288, read-out: MIC of clinical isolates of C. difficile), 0.125 µg/mL. For the same compound, the MIC in data set [1] (isolate 7-7150318, read-out: MIC of clinical isolates of C. difficile) turned out to be 0.125 µg/mL; in data set [1] (isolate 7-7150628, read-out: MIC of clinical isolates of C. difficile), 0.125 µg/mL; in data set [1] (isolate 7-7150997, read-out: MIC of clinical isolates of C. difficile), 0.125 µg/mL; in data set [1] (isolate 7-7151551, read-out: MIC of clinical isolates of C. difficile), 0.25 µg/mL; in data set [1] (isolate 7-7152701, read-out: MIC of clinical isolates of C. difficile), 0.25 µg/mL; in data set [1] (isolate 7-7153872, read-out: MIC of clinical isolates of C. difficile), 0.5 µg/mL. Also, the MIC in data set [1] (isolate 7-7154712 (listed twice), read-out: MIC of clinical isolates of C. difficile) was determined as 0.25 µg/mL; in data set [1] (isolate 7-7154992, read-out: MIC of clinical isolates of C. difficile), 0.25 µg/mL; in data set [1] (isolate 7-7156197, read-out: MIC of clinical isolates of C. difficile) it was 0.25 µg/mL; in data set [1] (isolate 7-7200552, read-out: MIC of clinical isolates of C. difficile) it was 0.25 µg/mL; in data set [1] (isolate 7-7363761, read-out: MIC of clinical isolates of C. difficile), 0.125 µg/mL; in data set [1] (isolate 12055, read-out: MIC of clinical isolates of C. difficile) it was 0.125 µg/mL. In addition, the minimal inhibitory concentration (MIC) turned out to be 0.125 µg/mL in data set [1] (isolate 12060, read-out: MIC of clinical isolates of C. difficile); 0.06 µg/mL in data set [1] (isolate 12061, read-out: MIC of clinical isolates of C. difficile); 0.06 µg/mL in data set [1] (isolate 12062, read-out: MIC of clinical isolates of C. difficile); 0.06 µg/mL in data set [1] (isolate 12063, read-out: MIC of clinical isolates of C. difficile); 0.06 µg/mL in data set [1] (isolate 12064, read-out: MIC of clinical isolates of C. difficile); 0.5 µg/mL (≈ 1.53 µM) in data set [1] (niclosamide, matches Table 2, read-out: Highest MIC observed). Also, in data set [1] (footnote b: data from tables herein), the MIC90 was 0.06 to 0.25 µg/mL (≈ 0.183 to 0.764 µM). Further, the results for the median lethal dose (LD50) with mice and in the data set on cats were greater than 5000 mg/kg and greater than 1000 mg/kg, respectively. Moreover, the solubility in water result in data set [2] was “poorly soluble in water”. Moreover, the “clearance from the bloodstream” value in data set [3] is given as “quickly cleared”.
For the compound `CN[C@H](CC(C)C)C(=O)N[C@H]1C(=O)N[C@@H](CC(N)=O)C(=O)N[C@H]2C(=O)N[C@H]3C(=O)N[C@H](C(=O)N[C@H](C(=O)O)c4cc(O)cc(O)c4-c4cc3ccc4O)[C@H](O)c3ccc(c(Cl)c3)Oc3cc2cc(c3O[C@@H]2O[C@H](CO)[C@@H](O)[C@H](O)[C@H]2O[C@H]2C[C@](C)(N)[C@H](O)[C@H](C)O2)Oc2ccc(cc2Cl)[C@H]1O` [Vancomycin], the MIC in data set [1] (read-out: C. difficile Strain 7-6011209 MIC) stood at 0.125 µg/mL (≈ 0.0863 µM). The MIC in data set [1] (read-out: C. difficile Strain 12055 MIC) stood at 0.25 µg/mL (≈ 0.173 µM). The “expected MIC of reference control strain” value in data set [4] was 1 µg/mL. For the same compound, in the data set on C. difficile, the “Highest MIC observed” value is listed as 16^a μg/mL and the MIC90 is 2^a μg/mL.

Source of the values: US11529361B2, “Halogenated salicylanilides for treating Clostridium infections” (UNION therapeutics A/S, priority 2015, dated 2022).
